Test systems include Escherichia coli SBS 363; Micrococcus luteus A270; Candida albicans MDM8.
What all share (experiment): ≥ marks a high value that may be exact or a test limit, other limits are often not marked, values filed in µg/mL are converted to µM
The test system of experiment [1] is Candida tropicalis IOC 4560.
Experiment [2] deals with Enterobacter cloacae beta-12.
Experiment [3] concerns Serratia marcescens ATCC 4112.
Experiment [4] concerns Bacillus megaterium ATCC 10778.
The test system of experiment [5] is Staphylococcus epidermidis ATCC 12228.
The subject of experiment [6] is Staphylococcus aureus ATCC 29213.
Experiment [7] has as its system Pseudomonas aeruginosa ATCC 27853.
Experiment [8] has as its system Bacillus subtilis ATCC 6633.
Experiment [9] has as its system Staphylococcus aureus SH1000.
For experiment [10], the system named is Klebsiella pneumoniae ATCC 700603.
In experiment [11] the test system is Staphylococcus aureus ATCC 43300.
For experiment [12], the system named is Candida albicans ATCC 90028.
Experiment [13] deals with Acinetobacter baumannii ATCC 19606.
For experiment [14], the system named is Cryptococcus neoformans ATCC 208821.
The subject of experiment [15] is Escherichia coli ATCC 25922.

Values after ≈ are worked out from the molar mass of the structure shown.

On to `CC(C)C[C@H](NC(=O)[C@H](C)NC(=O)CNC(=O)[C@H](CC(C)C)NC(=O)[C@@H](N)Cc1ccccc1)C(=O)N[C@@H](Cc1c[nH]c2ccccc12)C(=O)N[C@@H](CCCCN)C(=O)N[C@H](C(=O)N[C@@H](C)C(=O)N[C@@H](CCCCN)C(=O)N[C@@H](CCCCN)C(=O)N[C@H](C(=O)N[C@@H](Cc1ccccc1)C(N)=O)C(C)C)C(C)C` [FLGALWKVAKKVF], for which the minimal inhibitory concentration (MIC) (usually the lowest concentration that inhibits growth of the organism) turned out to be 3.1 µM (≈ 4.67 µg/mL) against Escherichia coli SBS 363; 0.8 µM (≈ 1.2 µg/mL) in experiment [1]; 6.3 µM (≈ 9.49 µg/mL) in experiment [2]; 0.2 µM (≈ 0.301 µg/mL) in [3]; 0.8 µM (≈ 1.2 µg/mL) against Micrococcus luteus A270; 0.8 µM (≈ 1.2 µg/mL) in experiment [4]. Moreover, the MIC in experiment [5] came out at 6.3 µM (≈ 9.49 µg/mL); in [6], 0.8 µM (≈ 1.2 µg/mL); against Candida albicans MDM8 it was 1.6 µM (≈ 2.41 µg/mL).

As for `CC(C)C[C@H](NC(=O)[C@H](C)NC(=O)CNC(=O)[C@H](CC(C)C)NC(=O)[C@@H](N)Cc1ccccc1)C(=O)N[C@@H](Cc1c[nH]c2ccccc12)C(=O)N[C@@H](CC(N)=O)C(=O)N[C@H](C(=O)N[C@@H](C)C(=O)N[C@@H](CCCCN)C(=O)N[C@@H](CO)C(=O)N[C@@H](CC(C)C)C(=O)N[C@@H](Cc1ccccc1)C(N)=O)C(C)C` [FLGALWNVAKSLF], the minimal inhibitory concentration (MIC) was 0.8 µM (≈ 1.17 µg/mL) with Escherichia coli SBS 363; 3.1 µM (≈ 4.54 µg/mL) in experiment [1]; ≥ 50 µM in experiment [2]; 0.4 µM (≈ 0.586 µg/mL) in [3]; 0.8 µM (≈ 1.17 µg/mL) in the experiment on Micrococcus luteus A270; > 50 µM in experiment [7]. The minimal inhibitory concentration (MIC) amounted to 3.1 µM (≈ 4.54 µg/mL) in [4], 0.8 µM (≈ 1.17 µg/mL) in [8], 0.8 µM (≈ 1.17 µg/mL) in experiment [6] and 3.1 µM (≈ 4.54 µg/mL) in the experiment on Candida albicans MDM8.

Turning to `CC[C@H](C)[C@H](NC(=O)[C@H](CC(=O)O)NC(=O)[C@H](Cc1ccccc1)NC(=O)[C@H](CC(C)C)NC(=O)CN)C(=O)N[C@@H](CC(C)C)C(=O)N[C@@H](CCCCN)C(=O)N[C@@H](CCCCN)C(=O)N[C@@H](CC(C)C)C(=O)N[C@@H](CC(C)C)C(=O)N[C@@H](CCCCN)C(=O)N[C@@H](CC(C)C)C(=O)N[C@@H](CC(C)C)C(=O)N[C@@H](CCCCN)C(N)=O` [GLFDILKKLLKLLK], in experiment [9], the minimal inhibitory concentration (MIC) is ≥ 100 µM.

Consider `CC(C)C[C@H](NC(=O)CN)C(=O)N[C@@H](CC(C)C)C(=O)N[C@@H](CCCCN)C(=O)N[C@@H](CC(C)C)C(=O)N[C@@H](CC(C)C)C(=O)N[C@@H](CCCCN)C(=O)N[C@@H](CCCCN)C(=O)N[C@@H](CC(C)C)C(=O)N[C@@H](CC(C)C)C(=O)N[C@@H](CCCCN)C(=O)N[C@@H](CC(C)C)C(=O)N[C@@H](CC(C)C)C(=O)N[C@@H](CCCCN)C(N)=O` [GLLKLLKKLLKLLK], for which the MIC in experiment [10] is > 19 µM; in experiment [11], > 19 µM; in experiment [9], ≥ 33 µM; in experiment [12] it was 12 µM (≈ 19.4 µg/mL); in experiment [13], 1 µM (≈ 1.62 µg/mL); in experiment [14], 1 µM (≈ 1.62 µg/mL). The minimum inhibitory concentration (MIC) in experiment [7] and in [15] was > 19 µM in each case.

With `CC(C)C[C@H](NC(=O)[C@H](C)NC(=O)CNC(=O)[C@H](CC(C)C)NC(=O)[C@@H](N)CCCCN)C(=O)N[C@@H](Cc1c[nH]c2ccccc12)C(=O)N[C@@H](CC(N)=O)C(=O)N[C@H](C(=O)N[C@@H](C)C(=O)N[C@@H](CCCCN)C(=O)N[C@@H](CO)C(=O)N[C@@H](CCCCN)C(=O)N[C@@H](Cc1ccccc1)C(N)=O)C(C)C` [KLGALWNVAKSKF], the minimum inhibitory concentration (MIC) with Escherichia coli SBS 363 was ≥ 50 µM; in [1], 25 µM (≈ 36.5 µg/mL); in experiment [2], ≥ 50 µM; in experiment [3] it was ≥ 50 µM; with Micrococcus luteus A270, 25 µM (≈ 36.5 µg/mL); in experiment [4], 6.3 µM (≈ 9.2 µg/mL). Besides, the minimal inhibitory concentration (MIC) was > 50 µM in experiment [5], > 50 µM in experiment [6] and 12.5 µM (≈ 18.3 µg/mL) with Candida albicans MDM8.

Take `CC(C)C[C@H](NC(=O)[C@H](C)NC(=O)CNC(=O)[C@@H](NC(=O)[C@@H](NC(=O)[C@H](CCCCN)NC(=O)[C@H](CCCCN)NC(=O)[C@H](CC(C)C)NC(=O)[C@H](CC(C)C)NC(=O)[C@H](CCCCN)NC(=O)[C@H](CC(C)C)NC(=O)[C@H](CC(C)C)NC(=O)[C@@H](N)CCCCN)C(C)C)C(C)C)C(=O)NCC(N)=O` [KLLKLLKKVVGALG]: the MIC in experiment [10] came out at 22 µM (≈ 32.5 µg/mL); in experiment [11] it was 22 µM (≈ 32.5 µg/mL); in [9], 10 µM (≈ 14.8 µg/mL); in experiment [12], 22 µM (≈ 32.5 µg/mL); in [13], 5 µM (≈ 7.39 µg/mL); in [14], 11 µM (≈ 16.3 µg/mL). Moreover, the MIC in [7] was > 22 µM; in experiment [15], 11 µM (≈ 16.3 µg/mL).

Source of the values: DBAASP.
